From US20230044257A1, “COMPOSITIONS AND METHODS FOR ENHANCED UPTAKE OF ACTIVE INGREDIENTS FOR ANIMAL HEALTH AND NUTRITION” (AgroSpheres, Inc., priority 2019, published 2023)

How the values were obtained:
E. coli strain ATCC 8739 = assay: Bacterial agglutination (transmittance at 450 nm); type: cell-based; conditions: 300 μg/mL
Protocol: E. coli strain ATCC 8739 (which causes disease outside of the intestinal tract and its highly virulent in chickens) from a frozen stock was cultured in tryptose broth (10 g of tryptose, 2.5 g of sodium chloride, 0.5 g of dextrose, and 0.0025 g of thiamin hydrochloride in 500 mL of deionized water) at 37° C. for 48 hours. After incubation, 1 mL of E. coli cultures were taken from the surface of the broth and used to inoculate new broths that were incubated at 37° C. for 24 hours. After 24 hours, the bacterial cultures were centrifuged at 1800 g for 10 minutes to obtain bacterial pellets. The pellets were washed twice with 1x PBS+Ca^2+/Mg^2+ and then resuspended in 1 mL of PBS+Ca^2+/Mg^2+ to obtain the bacterial stock solutions. The optical density of the suspension was measure at 600 nm and bacterial cell densities (CFU/mL) were calculated using previously established bacterial growth curves for each strain of bacteria. […] The final concentration of each cuvette was 300 μg/mL of genistein equivalent and 5.0×10^8 CFU/mL in a total volume of 1 mL. The cuvettes were mixed via trituration and placed on an UV-Visible spectrophotometer equipped with an eight-position cuvette holder. The percent transmittance of light at 450 nm was measured every 1 min for 240 min. […] After 240 min, the area under the curve was calculated from the generated transmittance calibration curves.

[1] = Encapsulation (loading) efficacy of essential oils / active ingredients into AgriCell; type: physicochemical
Protocol: After AgriCells are purified, the concentrated AgriCell paste or dry lyophilized powder is loaded with EOs. If dry, the AgriCells are first homogenized into a finer powder through mechanical homogenization. A stock solution from each EO is prepared in ethanol at 100 mg/mL-200 mg/mL. Lyophilized AgriCells would then be suspended in a solution with the EO solution at a ratio of 1 g of dry AgriCells to 10 mL of EO solution. Once resuspended, the ethanol is allowed to evaporate overnight, leaving behind EO encapsulated AgriCells in the process. After this overnight period, encapsulated AgriCells are removed from the beaker, and the EO-encapsulated AgriCell powder is mechanically homogenized. This encapsulated product is ready for resuspension in its appropriate medium. Loading efficacy was measured and/or calculated as percentage of EO loaded into AgriCell after extraction with ethanol 100% v/v and quantification by UV-Vis spectroscopy. Eugenol and thymol were quantified at 280 nm, whereas pyrethrum was quantified at 230 nm against its respective calibration standard curve. Also, Genistein was quantified at […], whereas eugenol was quantified at 280 nm against its respective calibration standard curve.

H. pylori = conditions: 2 mg/L; cited from earlier work
[2] = Thermal degradation of essential oils at 40° C.; type: physicochemical; conditions: day 7 at 40° C., diluted 1:10 in deionized water
Protocol: AgriCell-encapsulated EOs (200 mg/mL of EO loaded with 200 mg/mL of AgriCell) were diluted 1:10 in deionized water (total volume 1000 μL, 14 replicates for each EO) and the solutions were left at 40° C. for a total period of 7 days. One replicate of each EO per treatment was collected daily and tested for EO content. Results were reported as concentration of EO as function of time for each stability condition.

[3] = Auto-oxidative degradation of essential oils under UV and Vis light; type: physicochemical; conditions: after 7 days under UV and Vis light
Protocol: AgriCell-encapsulated EOs (200 mg/mL of EO loaded with 200 mg/mL of AgriCell) were diluted 1:10 in deionized water (total volume 1000 μL, 14 replicates for each EO) and the solutions were left under UV radiation for a total period of 7 days. One replicate of each EO per treatment was collected daily and tested for EO content by UV-Vis spectroscopy as described in Example 2. Results were reported as concentration of EO as function of time for each stability condition.

[4] = system: 3A9 T-cell hybridomas cocultured with mouse peritoneal macrophages; assay: IL-2 expression in 3A9 T-cell hybridomas cocultured with macrophages (ELISA); type: cell-based; conditions: 10 mg/mL
Protocol: Mouse peritoneal macrophages were resuspended in media and plated in 24-well cell-culture plates at a concentration of 1×10^8 cells/well. After 3 hours, the macrophages were attached and washed with DMEM media until cells other than macrophages were removed. Supplemented media (DMEM, 10% FBS, 2 mM of L-alanyl-L-glutamine, 100 U/mL of media penicillin and 100 U/mL of media streptomycin) was added and the macrophages were incubated overnight at 37° C. and 5% CO2. The 3A9 T-cell hybridomas were maintained in DMEM supplemented with 10% FBS, 50 μg of gentamycin/mL media, 2 mM of L-alanyl-L-glutamine, 10 mM of HEPES buffer, 55 μM of 2-mercaptoethanol, and 1× non-essential amino acids. For experiments, media was removed from the macrophages and rinsed once with PBS. […] The media was removed, and cells washed once with PBS. The T-cell hybridomas (concentration equals 2× the number of macrophages) in 3A9 media (without phenol red) were added to the macrophages and incubated for 24 hours. Media was removed, placed in microfuge tubes, centrifuged for 4 minutes at 15,000×g, and IL-2 was measured by an ELISA kit (555148, BD Biosciences). Data were expressed as pg of IL-2/mL media.

[5] = HEL release from AgriCell in PBS; type: physicochemical; conditions: PBS pH 7.3, 37° C.
Protocol: Samples were incubated at 37° C. under mild shaking. After 15, 30, 45, 60, 90, 120, 180, and 240 minutes, the tubes were given a spin-off and samples of 250 μL of the supernatant were taken. These samples were replaced by PBS (pH 7.3). The non-encapsulated HEL in PBS was determined with the Lowry protein assay and AgriCell-encapsulated HEL was determined by arithmetic differential calculation.

[6] = system: Pseudomonas aeruginosa ATCC 15442; assay: Zone of inhibition test (Kirby-Bauer); type: cell-based; conditions: ATCC15442, read-out: growth inhibition compared to positive control (Vancomycin 30 μg/mL)
Protocol: (§1) In this example, the zone of inhibition test, also called a Kirby-Bauer Test, was conducted to measure antibiotic resistance of eugenol encapsulated into AgriCell. Approximately 1×10^8 cells from a selected bacterial strain (Escherichia coli ATCC 25922 and Pseudomonas aeruginosa ATCC 15442) were spread over an agar plate using a sterile swab, then incubated in the presence of the antimicrobial agent (adsorbed over a paper disc). If the bacterial strain is susceptible to the antimicrobial agent, then a zone of inhibition appears on the agar plate, whereas if the selected bacterial strain is resistant to the antimicrobial agent, then no zone is evident.

[7] = system: Escherichia coli ATCC 25922; assay: Zone of inhibition test (Kirby-Bauer); type: cell-based; conditions: ATCC25922, read-out: growth inhibition compared to positive control (Vancomycin 30 μg/mL)
Protocol: as §1

E. coli = conditions: cited from earlier work
[8] = AI 100 mg/mL encapsulated into AgriCell (FIG. 4B)
[9] = EO 200 mg/mL encapsulated into AgriCell (FIG. 4A)

Row | Compound | encapsulation efficacy [1, 8] [%] | percentages of degradation [2] [%] | encapsulation efficacy [1, 9] [%] | autoxidatively degraded (degradation rates) [3] [%] | existence (remained/not damaged) [3] [%] | other results
1 | O=c1c(-c2ccc(O)cc2)coc2cc(O)cc(O)c12 [genistein] | 83.6 |  |  |  |  | lag phase of agglutination curve (E. coli strain ATCC 8739): about 25 minutes
2 | CC(C)=CCC/C(C)=C/CO [geraniol] |  |  |  |  |  | growth of H. pylori in vitro (H. pylori): inhibited the growth
3 | Cc1ccc(C(C)C)c(O)c1 [thymol] |  | 20.9 | 91.8 | 55.8 | 44.2 | 
4 | HEL: hen egg-white lysozyme, model protein antigen, 14.7 kDa |  |  |  |  |  | preincubation time to maximum IL-2 expression [4]: > 10 h; HEL released, initial burst stage ([5]; 15 minutes): 89.2%; HEL released ([5]; 240 minutes): 100.1%
5 | C=CCc1ccc(O)c(OC)c1 [eugenol] | 91.1 | 17.3 | 95.5 | 82.7 | 17.3 | inhibition at 200 µg/mL [6]: < 60%; inhibition at 200 µg/mL [7]: < 80%
6 | CC(C)=CCCC(C)=CC=O [citral] |  |  |  |  |  | concentration in growth media that reduced the concentration of E. coli (E. coli): more than 0.01%; concentration with bactericidal effect (E. coli): 0.08%
